Measurements taken from patent US9670244B2, “Oxysterol compounds and the hedgehog pathway” (THE REGENTS OF THE UNIVERSITY OF CALIFORNIA, priority 2006, dated 2017).
“And” between values parts separate entries of the source, which are not always exact repeats. Equal values may be shown once. “Also recorded” adds a separate entry of the source. Blank lines part the entries; values can stand above or below the molecule they belong to.

How the values were obtained:
[1] = system: Gli-dependent luciferase reporter; assay: Gli-dependent luciferase reporter (Gli-Luc) assay in M2 cells; type: cell-based, mouse; details: for Induction of Gli reporter activity: ShhN 200 ng/ml, oxysterols 5 μM, TO 1 or 5 μM, 48 hours; for Gli reporter activity (synthetic oxysterols, FIG. 10): M2-10B4 Marrow Stromal Cells
Experimental: (§1) Cells were plated into 24-well plates and transfected the next day with Gli-dependent firefly luciferase and Renilla luciferase vectors and where indicated, Smo or Ptch expression vectors. […] Cells were treated for 48 hours prior to assessing luciferase activity using the Dual Luciferase Reporter Assay System (Promega, Madison, Wis.) according to manufacturer's instructions. Experiments were performed in triplicate and error bars indicate one standard deviation.
To further examine Hh pathway activation by oxysterols, a reporter assay using a luciferase reporter driven by a multimerized Gli-responsive element (5′-[…]-3′) (SEQ ID NO:4) was used.

[2] = system: M2-10B4 marrow stromal cells; assay: Alkaline phosphatase activity assay in M2-10B4 marrow stromal cells; type: cell-based, mouse
Experimental: (§2) The cells used are the pluripotent M2 cells (M2-10B4) that we previously characterized for their ability to become osteoblastiic and adipocyte cells. […] These cells are derived from bone marrow, are easy to maintain and last for many passages in vitro. […] Among the markers of osteogenic differentiation that were assayed were alkaline phosphatase activity, osteocalcin mRNA expression and mineral formation in cultures of marrow stromal cells.
We tested the effect of the synthetic oxysterols, oxy-1 through oxy-15, on alkaline phosphatase activity in M2-10B4 marrow stromal cells. Cells were treated with the oxysterols for 4 days after which they were collected and analyzed by colorimetric assay for alkaline phosphatase activity.

[3] = system: M2-10B4 marrow stromal cells; assay: 45Ca incorporation (mineralization) assay in M2-10B4 marrow stromal cells; type: cell-based, mouse
Experimental: as §2
We tested the effect of oxysterols on mineralization in M2-10B4 marrow stromal cells. Cells were treated with the oxysterols for 14 days after which the amount of mineral formed in the cultures was quantified using a radioactive ^45Ca incorporation assay.

rat femur periosteum = assay: Rat periosteal femur model, bone formation scoring; type: in vivo; parameters: key to Bone formation Score, individual animal / Bone formation Score (radiograph scoring), individual animal: 4: Marked amount and contiguous on eriosteum; 3: Moderate amount and contiguous on eriosteum; 2: Small amount and contiguous on periosteum; 1: Small amount and small segments on periosteum; 0: None; details: for Bone formation score, Average / Bone formation score (radiograph scoring), Average: n=6
Experimental: Male SD rats were treated for two weeks with Oxy13 (or a control vehicle). The Oxy13 was delivered by an Alzet pump to the perioseum, in three doses or by daily injections. The treatment regimens were: two weeks treatment, n=6 per group, vehicle and three Oxy 13 doses continuous and two doses daily injection; and four weeks treatment, vehicle and two Oxy 13 doses, n=6/group. The bone in-growth endpoints that were evaluated were microradiography, histomorphometry and blinded, randomized visual scoring.

Gli-1 and Ptch mRNA = assay: Q-RT-PCR of hedgehog pathway genes in M2 cells; type: cell-based, mouse; details: for Inhibition of oxysterol-induced Gli-1 and Ptch mRNA expression: M2 cells, SS 24 hours, pretreatment or co-treatment with agent
Experimental: Q-RT-PCR was performed using reverse-transcribed RNA isolated from M2 cells using phenol/chloroform method. PCR reactions were performed using iQ SYBR Green Supermix and an iCycler RT-PCR Detection System (BIO-RAD Laboratories, Hercules, Calif.). Primer sequences for Gli-1, Gli-2, Gli-3, Shh and Ihh were kindly provided by Dr. Fanxin Long (Washington University, St. Louis, Mo.). Ptch and Smo primer sequences are available upon request. Q-RT-PCR data were normalized to cyclophilin expression and relative expression levels were calculated using the […] method (Livak et al. (2001) Methods 25, 402-408).

pMARCKS, pPKA, pCREB = assay: Western blotting of phosphorylated proteins in M2 cell lysates; type: cell-based, mouse; details: SS 5 μM 10 min to 48 hours; PMA 30 min
Experimental: After treatments, cells were lysed in lysis buffer, protein concentrations determined using the Bio-Rad protein assay (Hercules, Calif.), and SDS-PAGE was performed, probing for native and phosphorylated proteins.
We previously reported that oxysterol-induced osteoblastic differentiation of cells is mediated via protein kinase C (PKC)- and protein kinase A (PKA)-dependent mechanisms. The role of these signaling pathways in regulating the different markers of osteoblastic differentiation appears to be both specific and overlapping. To begin elucidating the possible role of PKC and PKA in mediating oxysterol-induced Hh pathway activation, we examined the effect of PKC and PKA inhibitors on markers of Hh pathway activation. […] Similarly, oxysterol-induced Gli-1 and Ptch expression was inhibited in cells whose PKC stores were depleted following overnight pretreatment with 1 μM PMA (FIG. 6c,d). We next examined whether oxysterols induced PKC activation by assessing the levels of phosphorylated MARCKS (pMARCKS), a PKC substrate, by Western blotting.
To examine the possible role of PKA in oxysterol-induced Hh pathway activation, the effect of PKA inhibitor, H-89, previously found to inhibit the induction of some, but not all, markers of osteoblastic differentiation, on oxysterol-induced Gli-1 and Ptch mRNA expression was assessed by Q-RT-PCR.

[4] = system: Gli-dependent luciferase reporter; details: 4 μM pre-treatment
Experimental: as §1

[5] = system: Runx2 DNA binding activity
Experimental: Oligonucleotides were annealed to their complementary sequences by boiling and cooling. The probes were end-labeled with γ^32P-ATP using polynucleotide kinase and column purified. […] Nuclear extracts (10 μg) were incubated in binding buffer (10 mM Tris pH 7.5, 100 mM NaCl, 1 mM DTT, 1 mM EDTA, 4% glycerol), 1 μg poly(dIdC) and 0.2 ng of labeled probe for 20 minutes at room temperature, and complexes were resolved on a cooled, 6% acrylamide 1×TBE gel. Subsequently, gels were dried and exposed to film.

osteocalcin (OCN) mRNA = details: 4 μM pre-treatment, 5 μM SS 8 days
Experimental: (§3) Colorimetric alkaline phosphatase activity assay on whole cell extracts and Northern blotting for OCN and 18S rRNA were performed by conventional procedures. Gene expression was quantified using a Storm840 phosphorimager and ImageQuant software (Amersham, Piscataway, N.J.).

Smo−/− MEFs = assay: Alkaline phosphatase assay in Smo-/- mouse embryonic fibroblasts; type: cell-based; details: two days; BMP-7 50 ng/ml
Experimental: as §3

[6] = Mus musculus, M210B4, 336 h, read-out: 45Ca Incorporation (fold induction over control untreated cells)
[7] = Mus musculus, M210B4, 96 h, read-out: Fold Induction over Control Untreated Cells (alkaline phosphatase activity)

Molecule: CC(C)CCC[C@@H](C)[C@H]1CC[C@H]2[C@@H]3C(=O)C=C4C[C@@H](O)CC[C@]4(C)[C@H]3CC[C@]12C [7-ketocholesterol, reference compound]
Induction of Gli reporter activity [1]: not observed

Molecule: CC(C)CCC[C@@H](C)[C@H]1CC[C@H]2[C@@H]3[C@H](O)C=C4C[C@@H](O)CC[C@]4(C)[C@H]3CC[C@]12C [7-α-hydroxycholesterol, reference compound]
Induction of Gli reporter activity [1]: not observed

Molecule: Cc1cccc(C[C@](C)(O)C2CCC3C4CC=C5C[C@@H](O)CC[C@]5(C)C4CC[C@@]32C)c1 (some centres unmarked) [Oxy11]
Gli reporter activity (synthetic oxysterols, FIG. 10) [1]: stimulate the Gli1 reporter; also recorded: stimulation of Gli reporter activity | Fold Induction over Control Untreated Cells (alkaline phosphatase activity) ([2]; 2.5 μM, 4 days): 6 fold

Molecule: CC(C)CCCC[C@](C)(O)[C@H]1CC[C@H]2[C@@H]3CC=C4C[C@@H](O)CC[C@]4(C)[C@H]3CC[C@@]21C [Oxy12, (3S,8S,9S,10R,13S,14S,17S)-2,3,4,7,8,9,10,11,12,13,14,15,16,17-tetradecahydro-17-((S)-2-hydroxy-7-methyloctan-2-yl)-10,13-dimethyl-1H-cyclopenta[a]phenanthren-3-ol]
Gli reporter activity (synthetic oxysterols, FIG. 10) [1]: stimulate the Gli1 reporter; also recorded: stimulation of Gli reporter activity | fold induction at 5 µM [3, 6]: 2 | fold induction at 10 µM [3, 6]: 4 | fold induction at 15 µM [3, 6]: 7 | fold induction at 5 µM [2, 7]: 22 | fold induction at 10 µM [2, 7]: 80

Molecule: C=C(C)CCC[C@](C)(O)[C@H]1CC[C@H]2[C@@H]3CC=C4C[C@@H](O)CC[C@]4(C)[C@H]3CC[C@@]21C [Oxy13, (3S,8S,9S,10R,13S,14S,17S)-2,3,4,7,8,9,10,11,12,13,14,15,16,17-tetradecahydro-17-((S)-2-hydroxy-6-methylhept-6-en-2-yl)-10,13-dimethyl-1H-cyclopenta[a]phenanthren-3-ol]
Bone formation Score, individual animal (rat femur periosteum; Pump 2 wk 0.167 mg/ml): 3 | Bone formation score, Average (rat femur periosteum; Pump 2 wk 0.167 mg/ml): 3.00 | Bone formation Score, individual animal (rat femur periosteum; Pump 2 wk 1.67 mg/ml): 1 and 4 (3×) and 3 and 2 | Bone formation score, Average (rat femur periosteum; Pump 2 wk 1.67 mg/ml): 3.00 | Bone formation Score (radiograph scoring), individual animal (rat femur periosteum; Pump 4 wk 0.167 mg/ml): 0 and 2 (3×) and 3 (2×) | Bone formation score (radiograph scoring), Average (rat femur periosteum; Pump 4 wk 0.167 mg/ml): 2.00 | Bone formation Score (radiograph scoring), individual animal (rat femur periosteum; Pump 4 wk 1.67 mg/ml): 2 (2×) and 3 and 1 (2×) and 0 | Bone formation score (radiograph scoring), Average (rat femur periosteum; Pump 4 wk 1.67 mg/ml): 1.50 | Gli reporter activity (synthetic oxysterols, FIG. 10) [1]: stimulate the Gli1 reporter; also recorded: stimulation of Gli reporter activity | fold induction at 5 µM [3, 6]: 5 | fold induction at 10 µM [3, 6]: 34 | fold induction at 15 µM [3, 6]: 38 | fold induction at 2.5 µM [2, 7]: 200 | fold induction at 5 µM [2, 7]: 334

Molecule: CC(C)CCC[C@](C)(O)[C@H]1CC[C@H]2[C@@H]3CC=C4C[C@@H](O)CC[C@]4(C)[C@H]3CC[C@@]21C [Oxy 20S, 20(S)-hydroxycholesterol, reference compound]
fold induction at 7.5 µM [3, 6]: 4

Molecule: O=S(=O)(NCCNC/C=C/c1ccc(Br)cc1)c1cccc2cnccc12 [Oxy H-89, H-89]
Inhibition of oxysterol-induced Gli-1 and Ptch mRNA expression (Gli-1 and Ptch mRNA): did not inhibit

Molecule: CCCCCCCCCCCCCC(=O)O[C@@H]1[C@@H](C)[C@@]2(O)[C@@H](C=C(CO)C[C@]3(O)C(=O)C(C)=C[C@@H]23)[C@@H]2C(C)(C)[C@]12OC(C)=O [PMA, Phorbol 12-Myristate 13-Acetate]
Inhibition of oxysterol-induced Gli-1 and Ptch mRNA expression (Gli-1 and Ptch mRNA): inhibited | Phosphorylated MARCKS (pMARCKS) levels (pMARCKS, pPKA, pCREB): clearly induced MARCKS phosphorylation

Molecule: O=S(=O)(c1ccccc1)N(CC(F)(F)F)c1ccc(C(O)(C(F)(F)F)C(F)(F)F)cc1 [TO-901317, reference compound]
Induction of Gli reporter activity [1]: no activation

Molecule: CC1=C2C[C@H]3[C@@H](CC=C4C[C@@H](O)CC[C@@]43C)[C@@H]2CC[C@]12O[C@@H]1C[C@H](C)CN[C@H]1[C@H]2C [cyclopamine, reference compound]
Inhibition of oxysterol-induced Gli-luc activity in C3H10T½ cells [4]: inhibited | Inhibition of oxysterol- or ShhN-induced Gli-luc activity ([1]; pre-treatment 2 hours, 4 μM): inhibited | Inhibition of oxysterol-stimulated Runx2 DNA binding activity [5]: completely inhibited | Inhibition of oxysterol-increased mineralization ([3]; 4 μM pre-treatment, 5 μM SS 14 days): inhibited | Inhibition of oxysterol-induced OCN expression (osteocalcin (OCN) mRNA): inhibited | Inhibition of SS-induced ALP activity ([2]; M2 cells, 5 μM SS, 3 days): significantly inhibited

Molecule: CC(=O)c1c(O)c(C)c(O)c(Cc2c(O)c3c(c(C(=O)/C=C/c4ccccc4)c2O)OC(C)(C)C=C3)c1O [rottlerin]
Inhibition of oxysterol-induced Gli-1 and Ptch mRNA expression (Gli-1 and Ptch mRNA): dose-dependently inhibited | Effect of agent alone on Gli-1 and Ptch gene expression (Gli-1 and Ptch mRNA; all concentrations tested, without SS): no significant effect on gene expression

ALP activity / osteoblastic differentiation in Smo−/− MEFs (Smo−/− MEFs): did induce ALP activity
B1: BMB-7: bone morphogenetic protein 7 (protein, UniProt P18075 293-431, looked up)
Bone morphogenetic protein 7: STGSKQRSQNRSKTPKNQEALRMANVAENSSSDQRQACKKHELYVSFRDLGWQDWIIAPEGYAAYYCEGECAFPLNSYMNATNHAIVQTLVHFINPETVPKPCCAPTQLNAISVLYFDDSSNVILKKYRNMVVRACGCH
